For assay [1], the target named is Sphingosine 1-phosphate receptor 2 (Homo sapiens, UniProt O95136). As to the kind of experiment: Dose Response Cell Based Assay for Antagonists of the S1P2 Receptor. [Related pubchem assays: 856, 736 ]. Format: functional.
Assay [2] is described as follows: half-maximal inhibitory concentration for glucagon-like peptide-1 release, STC-1 cell line, dose-response (AID 1117345). In kind it is functional, cell-based.
Assay [3] in a line: Glucagon-like peptide 1 release potency, NCI-H716 cell line, dose-response, half-maximal inhibitory concentration (AID 1117344). In kind it is functional, cell-based.
Assay [4] is described as follows: TRPM1 promoter luciferase reporter signal decrease, dose response, MITF inhibitor project, cell-based, SK-MEL-5, dry powder, set 9 (AID 651588). Format: functional. For orientation: Reporter assays use an easily measured gene product as a stand-in for the process of interest.
Assay [5] can be described thus: A375 melanoma cell viability loss, dose response, counter-screen for MITF inhibitor project, CellTiter-Glo luminescence, dry powder, set 4 (AID 624364).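 Note: A375 melanoma cells are MITF independent so this is a counter screen.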 In kind it is functional, cell-based. The note with it: A-375. For orientation: A counterscreen serves to expose hits that act by an unwanted route or on another target.
A short description of assay [6]: A375 melanoma cell cytotoxicity, dose response, counter-screen for MITF inhibitor project, CellTiter-Glo luminescence, dry powder, set 7 (AID 624490). Format: functional, cell-based. Particulars: A-375.
Assay [7] can be described thus: MITF Orthogonal Assay: MALME3 CTG Assay Measured in Cell-Based System Using Plate Reader - 2084-04_Inhibitor_Dose_DryPowder_Activity_Set6. Format: functional. The note with it: MALME-3.
Assay [8] in a line: SK-MEL-5 parental cell viability reduction, dose response, orthogonal assay for MITF inhibitor project, CellTiter-Glo luminescence, dry powder, set 8 (AID 651586). In kind it is functional, cell-based.
Assay [9] is described as follows: MALME3 melanoma cell viability reduction, dose response, orthogonal assay for MITF inhibitor project, CellTiter-Glo luminescence, dry powder, set 5 (AID 651584). Format: functional, cell-based. The note with it: MALME-3. A general note: ATP-based viability assays read luminescence as a measure of living cells.
Assay [10] can be described thus: SK-MEL-5 parental line viability, dose response, MITF inhibitor project, cell-based, CellTiter-Glo, dry powder, set 6 (AID 624429). Format: functional.
The nature of assay [11]: MITF Orthogonal Assay: SK-MEL-5 CTG Assay Measured in Cell-Based System Using Plate Reader - 2084-02_Inhibitor_Dose_DryPowder_Activity_Set5. Format: functional.
Assay [12] in a line: A375 melanoma cell viability loss, dose response, counter-screen for MITF modulator project, CellTiter-Glo luminescence, dry powder, set 9 (AID 651591). Format: functional, cell-based. Particulars: A-375.
Assay [13] in a line: MITF Measured in Cell-Based System Using Plate Reader - 2084-01_Inhibitor_Dose_DryPowder_Activity_Set6. Format: functional.
Assay [14] can be described thus: MITF Measured in Cell-Based System Using Plate Reader - 2084-01_Inhibitor_Dose_DryPowder_Activity_Set7. In kind it is functional.
The target of assay [15] is G-protein coupled receptor 183 (Homo sapiens, UniProt P32249). As to the kind of experiment: SAR confirmation of small molecule antagonists of the EBI2 receptor via a luminescent beta-arrestin assa. In kind it is functional.
Sequence of G-protein coupled receptor 183 (P32249 whole entry): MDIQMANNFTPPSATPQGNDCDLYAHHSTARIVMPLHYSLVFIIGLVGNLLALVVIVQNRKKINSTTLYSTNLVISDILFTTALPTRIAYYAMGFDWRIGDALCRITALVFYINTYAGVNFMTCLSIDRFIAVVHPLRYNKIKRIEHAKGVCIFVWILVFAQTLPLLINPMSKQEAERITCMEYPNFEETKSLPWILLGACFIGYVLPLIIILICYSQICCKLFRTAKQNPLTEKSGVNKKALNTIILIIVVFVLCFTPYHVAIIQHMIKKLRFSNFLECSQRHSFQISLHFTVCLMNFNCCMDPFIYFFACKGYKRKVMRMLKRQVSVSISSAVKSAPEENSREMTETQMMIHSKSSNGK
Assay [16] in a line: P. falciparum Dd2 growth inhibitors, dose response, SYBR Green, cherry-picked samples (AID 1159567). Format: functional, cell-based.
Assay [17] is described as follows: HepG2 cell cytotoxicity, dose response, cytotoxicity control, cherry-picked samples (AID 1159577). Format: functional, cell-based.
A short description of assay [18]: Dose-response inhibition of insulin secretion in a rat insulinoma line at 5 mM glucose (AID 1117331). Format: functional, cell-based. Particulars: INS-1E.

Calls of active or inactive are those of the source. Bounds are passed on as bounds.

One may read the IC50 as the concentration that inhibits the measured activity by half. In general, AC50 refers to the concentration at which the activity in the assay is half-maximal.

Sequence of Sphingosine 1-phosphate receptor 2 (O95136 whole entry): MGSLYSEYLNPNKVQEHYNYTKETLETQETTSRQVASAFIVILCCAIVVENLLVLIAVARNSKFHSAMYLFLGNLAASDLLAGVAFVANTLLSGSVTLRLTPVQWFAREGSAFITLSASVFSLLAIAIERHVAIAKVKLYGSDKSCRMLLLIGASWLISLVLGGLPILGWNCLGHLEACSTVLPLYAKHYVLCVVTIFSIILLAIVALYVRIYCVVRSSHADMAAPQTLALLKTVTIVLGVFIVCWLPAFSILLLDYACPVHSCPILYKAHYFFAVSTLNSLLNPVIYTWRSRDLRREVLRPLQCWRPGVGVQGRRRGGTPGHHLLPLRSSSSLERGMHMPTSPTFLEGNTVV

As to `COC(=O)c1sc2cc(C(F)(F)F)cnc2c1-c1ccccc1`, in [1], the IC50 is recorded as > 30 µM (not active).
In the case of `Cc1c(C)c2c(c(C)c1OC(=O)CCC(=O)OCCO)CC[C@@](C)(CCC[C@H](C)CCC[C@H](C)CCCC(C)C)O2`, the IC50 in [2] and in assay [3] was > 40 µM (inactive) in each case.
Take `NC1=C(NS(=O)(=O)c2cccs2)C(=O)c2ccccc2C1=O`: the AC50 is 21.3 µM (active) in assay [4]; > 70 µM (inactive) in assay [5]; 53 µM (active) in assay [6]; 32.5 µM (active) in [7]; 22.1 µM (active) in assay [8]; 32.5 µM (active) in assay [9]. Further, the AC50 in assay [10] was 16.7 µM (active); in assay [11], 16.9 µM (active); in assay [12], > 70 µM (inactive); in [13], 5.31 µM (active); in assay [14], 5.42 µM (active).
For `O=C(/C=C/c1ccc(Br)cc1)N1CCN(Cc2ccc(Cl)cc2F)CC1`, the IC50 in assay [15] was 0.00811 µM (active).
Same read-out and setting: for `O=C(/C=C/c1ccc(Cl)cc1F)N1CCN(S(=O)(=O)c2ccccc2)CC1` the value was 0.184 µM (active).
On to `COc1cccc(CN(C)C[C@H]2OCc3ccccc3-c3c(n(C)c4ccccc34)C(=O)N([C@H](C)CO)C[C@H]2C)c1`, for which the AC50 in assay [16] was 6.01 µM (active); in [17] it was > 39 µM (inactive).
Turning to `CN(C)CCOC(C)(c1ccccc1)c1ccccn1` (centres undefined) [DOXYLAMINE SUCCINATE], the IC50 in assay [18] is > 33.3 µM (inactive).
